Experiment [1] deals with RA patients with high gonadotropin levels. Description: Example 2: AGRA post hoc analyses in patients with high gonadotropin levels, disease activity (DAS28-CRP, ACR, EULAR). It is filed as in vivo, human. The text has this: Post hoc analyses is described herein.
Key inclusion criteria for AGRA were males or females aged ≧18 years with RA that had been diagnosed on the basis of the American College of Rheumatology (ACR) 1987 revised criteria (Arnett F C, et al., Arthritis Rheum 1988; 31:315-24); with active, and moderate or severe disease defined as a Disease Activity Score for 28-joint counts based on C-reactive protein (Wells G, et al., Ann Rheum Dis 2009; 68:954-60) (DAS28-CRP) >3.2 and at least two of the following criteria: ≧6 painful joints, ≧3 swollen joints, ESR ≧20 mm/h, and a C-reactive protein ≧10 mg/L). Prednisolone ≦7.5 mg/day was permitted if stable for at least 4 weeks prior to baseline; NSAIDs were permitted if stable for at least 2 weeks prior to baseline; and disease-modifying anti-rheumatic drugs (DMARDs) were permitted if stable for at least 8 weeks prior to baseline. Tumour necrosis factor-α (TNF-α) inhibitor or other biological agents were not permitted during the trial or within 4 weeks prior to inclusion. Infliximab/adalimumab was not permitted at least 3 months prior to inclusion; Rituximab was not permitted at least 6 months prior to inclusion. Intramuscular, intra-articular or intravenous corticosteroids; any hormone replacement therapy; or oral contraception was not permitted during the trial or within 4 weeks prior to inclusion.
In these post hoc analyses, a subgroup of AGRA patients with high gonadotropin levels were examined. There is no established cut-off for high LH and/or FSH. Therefore, levels above the median were defined as high (e.g., LH>17.3 IU/L and FSH>34.6 IU/L).
The intention-to-treat population was predefined as all randomised patients who received any study-drug injections. Missing values were <1% and could, as predefined, be imputed with the last-observation-carried-forward. The assumptions of normality needed for analyses were approximately valid. All statistical tests were two-sided (α=0.05) and performed with Stata 12 and StatXact 9. Analyses were performed by an offsite statistician who received locked databases from blinded investigators and laboratories, and the allocation key from the offsite central office.

Experiment [2] relates to interleukin-1β. The experiment is described as follows: Example 2: serum cytokine, multiplex high-sensitivity assay, interleukin-1β. It is filed as in vivo, human. The note with it: high gonadotropin patients. How it is done:
The protocol-specified primary and secondary intention-to-treat endpoints of the original AGRA trial were analyzed in these post hoc analyses. The primary endpoint was the baseline-adjusted between-group difference in DAS28-CRP (Wells et al., supra) by day 5b. Secondary endpoints included the baseline-adjusted between-group difference in cytokines, proportions of patients achieving at least a 20%, 50%, and 70% improvement on the ACR scale (Felson D T, et al., Arthritis Rheum 1995; 38:727-35), categorical DAS28-CRP (European League Against […] [EULAR]) responses (Wells et al., supra; van Gestel A M, et al., Arthritis Rheum 1996; 39:34-40), DAS28-CRP≦3.2 (Wells et al., supra), DAS28-CRP<2.6 (Wells et al., supra), and the incidence of adverse events. Protocol-specified DAS28 outcomes were preferentially CRP-based rather than erythrocyte sedimentation rate (ESR)-based, as CRP usually changes before ESR. […] Multiplex technology (Luminex Inc., Austin, Tex.) measured these serum cytokines using high-sensitivity assays (sensitivities <0.5 pg/mL, allowing the detection of very low concentrations of cytokines) and identical lots of critical reagent of negligible cross-reactivity <2%, according to manufacturers' instructions (Bio-Rad, Hercules, Calif.). […] To enable intention-to-treat analyses with all patients N=53, non-detectable values were set at the lower limit of detection for cytokines, as is common for CRP values.
The original power calculation is previously reported (Kass A S, et al., Scand J Rheumatol Epub ahead of print 1 Nov. 2013). Baseline-adjusted between-group differences for all continuous endpoints were assessed with the use of analysis-of-covariance using outcome measurements at predefined time points as response variables, and treatment and baseline measurements as covariates. Dichotomous endpoints were compared with the Pearson chi-square test or Suissa-Shuster exact unconditional test, depending on expected-value distribution (Lydersen S, et al., Stat Med 2009; 28:1159-75). No adjustments for multiple analyses were made, owing to highly correlated endpoints. Due to skewed distributions, between-group changes of natural log-transformed cytokine levels from baseline were compared.

Experiment [3] has as its system gonadotropins, oestradiol, testosterone, cortisol. Description: Example 2: hormones (gonadotropins, oestradiol, testosterone, cortisol) in high gonadotropin patients. It is filed as in vivo, human. The text has this: Non-competitive immunofluorometric assays were used for the quantitative determination of serum LH and FSH (Dissociation Enhanced Lanthanide Fluoroimmunoassay [DELFIA] kit, Turku, Finland). A competitive immunofluorometric assay was used for the determination of serum oestradiol (DELFIA kit, Turku, Finland). A competitive radioimmunoassay was used for the quantitative determination of serum testosterone (Orion Diagnostica. Espoo, Finland). A competitive Iuminoimmunoassay was used for the quantitative determination of serum cortisol (Immulite 2000, California, USA).

Experiment [4] addresses T1, GnRH receptors (Rattus norvegicus, UniProt P30969).
T1 construct: through GnRH receptors in rats; host or cells: rats (in vivo)
T1 sequence (P30969 1-327): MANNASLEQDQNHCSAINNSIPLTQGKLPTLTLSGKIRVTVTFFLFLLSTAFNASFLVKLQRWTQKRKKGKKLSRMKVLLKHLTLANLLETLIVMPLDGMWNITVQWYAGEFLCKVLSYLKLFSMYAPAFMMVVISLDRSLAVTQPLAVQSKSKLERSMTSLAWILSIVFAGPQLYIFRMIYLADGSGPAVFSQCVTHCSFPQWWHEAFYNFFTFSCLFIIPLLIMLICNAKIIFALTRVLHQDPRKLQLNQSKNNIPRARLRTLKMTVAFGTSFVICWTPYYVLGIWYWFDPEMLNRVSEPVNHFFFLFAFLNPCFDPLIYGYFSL
Particulars: rats; Rick F G, et al., Prostate 2011; cited from earlier work.

Setting [5] is: high gonadotropin patients, by day 5, placebo 0%.

The text below walks through data of patent US9618507B2, “Methods of treating rheumatoid arthritis” (Betanien Hospital, priority 2014, dated 2017).

Structures are written as SMILES. Like-named read-outs stand apart in the source and are kept apart here. Marks after values point to notes of the source that are not given here. Where a SMILES comes first, the peptide text is derived from it. [ ]: non-standard residue; d: D form. dPhe(4-Cl) = N[C@H](Cc1ccc(Cl)cc1)C(=O)O; d2Nal = N[C@H](Cc1ccc2ccccc2c1)C(=O)O; dCit = NC(=O)NCCC[C@@H](N)C(=O)O; d3Pal = N[C@H](Cc1cccnc1)C(=O)O

Consider `CC(=O)N[C@H](Cc1ccc2ccccc2c1)C(=O)N[C@H](Cc1ccc(Cl)cc1)C(=O)N[C@H](Cc1cccnc1)C(=O)N[C@@H](CO)C(=O)N[C@@H](Cc1ccc(O)cc1)C(=O)N[C@H](CCCNC(N)=O)C(=O)N[C@@H](CC(C)C)C(=O)N[C@@H](CCCNC(=N)N)C(=O)N1CCC[C@H]1C(=O)N[C@H](C)C(N)=O` [cetrorelix] (Ac-[d2Nal][dPhe(4-Cl)][d3Pal]SY[dCit]LRP[dA]-NH2), for which the “reductions of DAS28-CRP and cytokines compared to placebo, high gonadotropin groups (N=53) versus the rest of the AGRA population (N=46)” value in experiment [1] (FIG. 5B-E) is recorded as “greater reductions”. In experiment [1] (setting [5]), the “patients achieving DAS28-CRP<2.6” value turned out to be 15%, the “patients achieving DAS28-CRP≦3.2” value is 22% and the “patients achieving EULAR 'Good-Responses'” value came out at 19%. In experiment [1] (high gonadotropin patients, by day 5, placebo 19%), the “patients achieving ACR20 responses” value was 44%. Besides, in experiment [1] (high gonadotropin patients, cetrorelix N=27, 95% CI −1.3 to −0.67, placebo −0.40), the “DAS28-CRP change by day 5” value is recorded as −1.0. Further, in experiment [1] (high gonadotropin patients, day 5, 95% CI 0.13 to 0.93, P=0.010), the “DAS28-CRP baseline-adjusted between-group difference” value worked out at 0.53. The “ACR50 and ACR70 responses compared with placebo” value in experiment [1] (high gonadotropin patients, numbers too small for valid conclusions) is “More patients reached ACR50 and ACR70 responses”. Moreover, the “DAS28-CRP reduction, prednisolone users (N=13) vs non-users (N=14)” value in experiment [1] (patients who received cetrorelix, P=0.73) is “similar”. In addition, the “IL-1β level, Final Day 15” value in experiment [2] (N = 27, mean ± SD) was −1.68 ± 1.4 log pg/mL. Also, in experiment [2] (N = 27, placebo +0.10), the “IL-1β Change from baseline by day 15” value is on record as −0.20 log pg/mL. Moreover, the “Interleukin-1β change compared with placebo” value in experiment [2] (by day 15, P=0.034) is “significantly decreased”. In addition, in experiment [2] (day 15, 95% CI (0.02, 0.59), P < 0.05), the “IL-1β Baseline-Adjusted Between-Group Difference” value was 0.30‡ log pg/mL. Moreover, in experiment [3], the “Cortisol change compared with placebo (words)” value is listed as “significantly decreased”, the “gonadotropins change compared to placebo” value is listed as “significantly reduced”, the “oestradiol change compared to placebo” value is recorded as “significantly reduced” and the “testosterone change compared to placebo” value was “significantly reduced”. For the same molecule, the “gonadotropin levels, onset” value in experiment [3] (by day 2) is given as “decreased”. The same molecule yielded a Cortisol between-group difference in experiment [3] (by day 5, 95% CI 10.5 to 95.8, P=0.016) of 53.1 nmol/L. Further, in experiment [3] (listed as Cetrorelix), the “Cortisol change compared with placebo (words)” value is listed as “significantly reduced”. The “pro-inflammatory cytokine gene expression through GnRH receptors” value in experiment [4] was “directly decrease”.
